What all share (type): cell-based, human
One test deals with CA-46. The test is described as follows: MTS cell proliferation assay, Burkitt's lymphoma line CA-46. As to conditions: CA-46 cells. How it is done:
Cellular lines related with Burkitt's human lymphoma The cellular line of Burkitt's human lymphoma was used with CA-46 (DSMZ).
This cellular line was maintained in a culture of RPMI 1640 supplemented with 10% fetal bovine serum according to the established cellular culture conditions of the ATCC.
The cellular lines were cultivated in flasks of 75 ml (Falcon, Germany). Half was renewed every two days and the cells were treated with Trypsin (0.05% and 0.02% EDTA […]) every six days. The cells were incubated at 37 C in a humidification of (95% air/5% CO2). […]
(§1) The cell proliferation was evaluated using the MTS method [3-(4,5-dimethylthiazol-2-il)-5-(3-carboxymethoxyphenyl) 2-(4-sulfophenyl)-2H-tetrazolium], following the instructions of use by the manufacturer (CellTiter 96 Aqueous One Solution Cell Proliferation Assay, Promega, USA).
The cells were quantified and cultured in plates of 96 wells each. […]
In T0, 20 μL of MTS was immediately added to the wells and they were read 90 minutes later. […]
To study the proliferation of the cells 20 µl of reactive MTS was added to each well (T1, T2) 90 min before reading the samples with the plate reader (TECAN Spectra Classic) at 492 nm. The quantity of reactive MTS was measured by optical density, being directly proportional in number of live cells. […]
(Tetrazolium assays rely on reduction of a dye to a coloured formazan, in cell work by metabolically active cells.)

The subject of the next test is A-204. The test is described as follows: MTS cell proliferation assay, rhabdomyosarcoma line A-204. The following applies: A-204 cells. How it is done: Cellular Lines Related to Human Rhabdomyosarcoma A-204 (DSMZ) were Used.
This cellular line was maintained in a culture of Mc-Co-supplemented with 10% fetal bovine serum according to the established cellular culture conditions of the ATCC.
(§2) The cellular line was cultivated in flasks of 75 ml (Falcon, Germany). Half were renewed every two days and the cells were treated with Trypsin (0.05% and 0.02% EDTA without Ca2+ and Mg2+) every six days. The cells were incubated at a temperature of 37 C in a humidification of (95% air/5% CO2). […]
The cell proliferation was evaluated using the MTS method [3-(4,5-dimethylthiazol-2il)-5-(3-carboxymethoxyphenyl) 2-(4-sulfophenyl)-2H-tetrazolium], following the instructions of use by the manufacturer (CellTiter 96 Aqueous One Solution Cell Proliferation Assay, Promega, USA).
(§3) During the experiment, the cultivated cells were broken apart every 4-5 days by way of trypsinization and to test the cell viability the blue trypan method was used. The cells were quantified and cultured in plates of 96 wells each. […]
In T0, 20 μl of MTS was immediately added to the wells and were read 90 minutes later. […]
To study the proliferation of the cells 20 μl of MTS reactor was added to each well (T1, T2) 90 min., before reading the samples with the plate reader (TECAN Spectra Classic) at 492 nm. […]

The subject of the next test is COLO-677. The test is described as follows: MTS cell proliferation assay, small cell lung cancer line COLO-677. The following applies: COLO-677 cells. How it is done: Cellular lines related with small cell lung cancer COLO-677 (DSMZ) was used. This cellular line was maintained in a culture of RPMI 1640 supplemented with 10% fetal bovine serum according to the established cellular culture conditions of the ATCC.
as §2, §1, §3
In T0, 20 μl of MTS was immediately added to the wells and they were read 90 minutes later. […]
To study the proliferation of the cells 20 μL of MTS reactor was added to each well (T1, T2) 90 min., before reading the samples with the plate reader (TECAN Spectra Classic) at 492 nm. […]

Molecules are shown by their SMILES.

In the case of `FC(F)(F)c1cc(CO[C@H]2CCCN[C@H]2c2ccccc2)cc(C(F)(F)F)c1` [L-733,060, (2S,3S) 3-([3,5-Bis(trifluoromethyl)phenyl]metoxi)-2-phenylpiperidine], the cellular growth entry in the test on CA-46 (at the highest concentrations (2.5 μM to 25 μM tested), 35 hrs. and 72 hrs. incubation) was “inhibition in cellular growth was produced”; in the test with A-204 (at the highest concentrations (2.5 μM to 20 μM tested), 36 hrs. and 72 hrs. incubation), “Cellular growth is inhibited”; with COLO-677 (at the highest concentrations (5 μM to 20 μM tested), 40 hrs. and 96 hrs. incubation), “Cellular growth is inhibited”. Moreover, the apoptosis result with CA-46 (at the maximum dose (2.5 μM to 25 μM tested)), in the test on A-204 (at the maximum dose (2.5 μM to 20 μM tested)) and with COLO-677 (at the maximum dose (5 μM to 20 μM tested)) was “apoptosis” in each case.

(Values after patent publication US9867814B2, “Use of non-peptidic NK1 receptor antagonists for the production of apoptosis in tumour cells” (NK-1 IP LIMITED, priority 2004, dated 2018).)
